The values below come from patent EP0729956B1, “Benzothiophene compounds, intermediates, compositions, and methods” (ELI LILLY AND COMPANY, priority 1995, dated 1996).

Molecules are shown by their SMILES. Where a name gives a salt, the structure may show the parent alone. Read-outs that look alike come from different tables or passages of the source.

Data set [1] has as its system ovariectomized rats. Briefly: Serum cholesterol analysis (OVX rat, 4-day dosing). The format is in vivo, Sprague Dawley rats. As to conditions: Rattus norvegicus, po, 96 h, daily for 4 days, read-out: Serum Cholesterol (% decrease vs. OVX). The source says:
(§1) Seventy-five day old female Sprague Dawley rats (weight range of 200 to 225g) were obtained from Charles River Laboratories (Portage, MI). The animals were either bilaterally ovariectomized (OVX) or exposed to a Sham surgical procedure at Charles River Laboratories, and then shipped after one week. Upon arrival, they were housed in metal hanging cages in groups of 3 or 4 per cage and had ad libitum access to food (calcium content approximately 0.5%) and water for one week. Room temperature was maintained at 22.2° ± 1.7° C with a minimum relative humidity of 40%. The photoperiod in the room was 12 hours light and 12 hours dark.
(§2) After a one week acclimation period (therefore, two weeks post-OVX) daily dosing with test compound was initiated. 17a-ethynyl estradiol or the test compound were given orally, unless otherwise stated, as a suspension in 1% carboxymethylcellulose or dissolved in 20% cyclodextrin. Animals were dosed daily for 4 days. Following the dosing regimen, animals were weighed and anesthetized with a ketamine: Xylazine (2:1, V:V) mixture and a blood sample was collected by cardiac puncture. The animals were then sacrificed by asphyxiation with CO2, the uterus was removed through a midline incision, and a wet uterine weight was determined.
Blood samples were allowed to clot at room temperature for 2 hours, and serum was obtained following centrifugation for 10 minutes at 3000 rpm. Serum cholesterol was determined using a Boehringer Mannheim Diagnostics high performance cholesterol assay. Briefly the cholesterol was oxidized to cholest-4-en-3-one and hydrogen peroxide. The hydrogen peroxide was then reacted with phenol and 4-aminophenazone in the presence of peroxidase to produce a p-quinone imine dye, which was read spectrophotemetrically at 500 nm. Cholesterol concentration was then calculated against a standard curve. The entire assay was automated using a Biomek Automated Workstation.

The subject of data set [2] is ovariectomized rats. The arrangement: species or system Sprague Dawley rats. As to conditions: rat, in vivo, po.
From the text: as §1, §2
Uteri were kept at 4° C until time of enzymatic analysis. The uteri were then homogenized in 50 volumes of 50 mM Tris buffer (pH - 8.0) containing 0.005% Triton X-100. Upon addition of 0.01% hydrogen peroxide and 10 mM O-phenylenediamine (final concentrations) in Tris buffer, increase in absorbance was monitored for one minute at 450 nm. The presence of eosonophils in the uterus is an indication of estrogenic activity of a compound. The maximal velocity of a 15 second interval was determined over the initial, linear portion of the reaction curve.

In data set [3] the test system is MCF-7 breast adenocarcinoma cells. Briefly: MCF-7 Proliferation Assay (tritiated thymidine). Type of data set: cell-based. Particulars: Homo sapiens, MCF7; MCF-7 cells, 48 hours with drug, tritiated thymidine pulse 4 hours. As for the experimental part: MCF-7 breast adenocarcinoma cells (ATCC HTB 22) were maintained in MEM (minimal essential medium, phenol red-free, Sigma, St. Louis, MO) supplimented with 10% fetal bovine serum (FBS) (V/V), L-glutamine (2 mM), sodium pyruvate (1 mM), HEPES {(N-[2-hydroxyethyl]piperazine-N'-[2-ethanesulfonic acid]10 mM}, non-essential amino acids and bovine insulin (1 ug/mL) (maintenance medium). Ten days prior to assay, MCF-7 cells were switched to maintenance medium supplemented with 10% dextran coated charcoal stripped fetal bovine serum (DCC-FBS) assay medium) in place of 10% FBS to deplete internal stores of steroids. MCF-7 cells were removed from maintenance flasks using cell dissociation medium (Ca++/Mg++ free HBSS (phenol red-free) supplemented with 10 mM HEPES and 2 mM EDTA). Cells were washed twice with assay medium and adjusted to 80,000 cells/mL. Approximately […] (8,000 cells) were added to flat-bottom microculture wells (Costar 3596) and incubated at 37° C in a 5% CO2 humidified incubator for 48 hours to allow for cell adherence and equilibration after transfer. Serial dilutions of drugs or DMSO as a diluent control were prepared in assay medium and […] to triplicate microcultures followed by […] assay medium for a final volume of […]. After an additional 48 hours at 37° C in a 5% CO2 humidified incubator, microcultures were pulsed with tritiated thymidine (1 uCi/well) for 4 hours. Cultures were terminated by freezing at -70° C for 24 hours followed by thawing and harvesting of microcultures using a Skatron Semiautomatic Cell Harvester. Samples were counted by liquid scintillation using a Wallac BetaPlace b counter. Results in Table 4 below show the IC50 for certain compounds of the present invention.

The subject of data set [4] is ovariectomized test animals. Put plainly: Osteoporosis Test Procedure (OVX rat, 35-day dosing, distal femur metaphysis X-ray image analysis). Type of data set: in vivo, Sprague Dawley rats. Particulars: OVX rats, daily for 35 days, mean ± SEM.
From the text: as §1
Following the General Preparation Procedure, infra, the rats were treated daily for 35 days (6 rats per treatment group) and sacrificed by carbon dioxide asphyxiation on the 36th day. The 35 day time period was sufficient to allow maximal reduction in bone density, measured as described herein. At the time of sacrifice, the uteri were removed, dissected free of extraneous tissue, and the fluid contents were expelled before determination of wet weight in order to confirm estrogen deficiency associated with complete ovariectomy. […] The uteri were then placed in 10% neutral buffered formalin to allow for subsequent histological analysis.
The right femurs were excised and digitilized x-rays generated and analyzed by an image analysis program (NIH image) at the distal metaphysis. The proximal aspect of the tibiae from these animals were also scanned by quantitative computed tomography.
In accordance with the above procedures, compounds of the present invention and ethynyl estradiol (EE2) in 20% hydroxypropyl b-cyclodextrin were orally administered to test animals. Distal femur metaphysis data presented in Tables 2 and 3 below are the results of formula I compound treatments compared to intact and ovariectomized test animals. Results are reported as the mean ± the standard error of the mean.

Consider `Oc1ccc(-c2sc3ccccc3c2Oc2ccc(OCCN3CCCC3)cc2)cc1` [Example 3, [3-[4-[2-(1-pyrolidinyl)ethoxy]phenoxy]-2-(4-hydroxyphenyl)]benzo[b]thiophene], for which, in the data set on ovariectomized rats [1], the inhibition in vivo at 0.01 mg/kg amounted to 50.6%. Besides, the inhibition in vivo at 0.1 mg/kg in the data set with ovariectomized rats [1] is 47.8%. Further, the inhibition in vivo at 1 mg/kg in the data set on ovariectomized rats [1] was found to be 49.2%. Also, the “Uterine EPO (V. max)” value in the data set on ovariectomized rats [2] (0.01 mg/kg) came out at 1.8; in the data set with ovariectomized rats [2] (0.1 mg/kg), 4.8; in the data set on ovariectomized rats [2] (1 mg/kg), 5.4. Also, in data set [3], the IC50 came to 4 nM.

As to `COc1ccc(-c2sc3cc(OC)ccc3c2Oc2ccc(OCCN3CCCCC3)cc2)cc1` [Example 10, [6-methoxy-3-[4-[2-(1-piperidinyl)ethoxy]-phenoxy]-2-(4-methoxyphenyl)]benzo[b]thiophene], in the data set on ovariectomized rats [1], the inhibition in vivo at 0.1 mg/kg amounted to 50.2%. Moreover, in the data set on ovariectomized rats [1], the inhibition in vivo at 1 mg/kg amounted to 59%. Moreover, the inhibition in vivo at 10 mg/kg in the data set with ovariectomized rats [1] was 38.9%. For the same compound, the “Uterine EPO (V. max)” value in the data set on ovariectomized rats [2] (0.1 mg/kg) turned out to be 12.0; with ovariectomized rats [2] (1 mg/kg) it was 17.7; in the data set with ovariectomized rats [2] (10 mg/kg), 4.8. Also, the midpoint of inhibition in data set [3], the IC50, lay at 2 nM. Moreover, the “Distal Femur Metaphysis (X-ray Image Analysis-Gray Score)” value is 15.3 ± 3.0 in data set [4] (Table 3, oral, dose 0.1 mg/kg, OVX control 6.2 ± 1.4, Sham 31.1 ± 6.3); 15.2 ± 3.7 in data set [4] (Table 3, oral, dose 1.0 mg/kg, OVX control 6.2 ± 1.4, Sham 31.1 ± 6.3); 18.5 ± 3.2∗ in data set [4] (Table 3, oral, dose 3.0 mg/kg, OVX control 6.2 ± 1.4, Sham 31.1 ± 6.3).

In the case of `Oc1ccc(-c2sc3cc(O)ccc3c2Oc2ccc(OCCN3CCCCC3)cc2)cc1` [Example 19, [6-hydroxy-3-[4-[2-(1-piperidinyl)-ethoxy]phenoxy]-2-(4-hydroxyphenyl)]benzo[b]thiophene oxalate], the inhibition in vivo at 0.01 mg/kg in the data set on ovariectomized rats [1] came out at 25.1%. For the same compound, the inhibition in vivo at 0.1 mg/kg in the data set with ovariectomized rats [1] is 45.3%. The inhibition in vivo at 1 mg/kg with ovariectomized rats [1] amounted to 53.6%. Further, the figures for the “Uterine EPO (V. max)” value with ovariectomized rats [2] (0.01 mg/kg), in the data set with ovariectomized rats [2] (0.1 mg/kg) and in the data set with ovariectomized rats [2] (1 mg/kg) were 2.1, 2.4 and 3.6, respectively. The compound further came in with an IC50 in data set [3] of 0.028 nM. Besides, the “Distal Femur Metaphysis (X-ray Image Analysis-Gray Score)” value in data set [4] (Table 2, oral in 20% hydroxypropyl b-cyclodextrin, dose 0.1 mg/kg, OVX control 8.1 ± 1.8, Sham 27.2 ± 6.0) is 14.7 ± 1.9; in data set [4] (Table 2, oral, dose 1.0 mg/kg, OVX control 8.1 ± 1.8, Sham 27.2 ± 6.0), 15.0 ± 3.5∗; in data set [4] (Table 2, oral, dose 10.0 mg/kg, OVX control 8.1 ± 1.8, Sham 27.2 ± 6.0) it was 15.3 ± 4.0∗.

Consider `Oc1ccc(-c2sc3cc(O)ccc3c2Oc2ccc(OCCN3CCCC3)cc2)cc1` [Example 21, [6-Hydroxy-3-[4-[2-(1-pyrolidinyl)ethoxy]phenoxy]-2-(4-hydroxyphenyl)]benzo[b]thiophene], for which, in the data set on ovariectomized rats [1], the inhibition in vivo at 0.01 mg/kg stood at 26.8%. Besides, the inhibition in vivo at 0.1 mg/kg with ovariectomized rats [1] stood at 47.5%. The inhibition in vivo at 1 mg/kg with ovariectomized rats [1] worked out at 54.4%. Besides, the “Uterine EPO (V. max)” value was 1.2 in the data set on ovariectomized rats [2] (0.01 mg/kg), 4.8 with ovariectomized rats [2] (0.1 mg/kg) and 9.3 in the data set on ovariectomized rats [2] (1 mg/kg). Also, in data set [3], the IC50 amounted to 0.05 nM.

For `CCN(CC)CCOc1ccc(Oc2c(-c3ccc(O)cc3)sc3cc(O)ccc23)cc1` [Example 23, [6-Hydroxy-3-[4-[2-(1-N,N-diethylamino)ethoxy]phenoxy]-2-(4-hydroxyphenyl)]benzo[b]thiophene], in the data set with ovariectomized rats [1], the inhibition in vivo at 0.01 mg/kg came out at 36.2%, the inhibition in vivo at 0.1 mg/kg came to 47.2% and the inhibition in vivo at 1 mg/kg is 66.1%. The “Uterine EPO (V. max)” value with ovariectomized rats [2] (0.01 mg/kg) came out at 3.3. The “Uterine EPO (V. max)” value in the data set with ovariectomized rats [2] (0.1 mg/kg) was 84.3. In addition, the “Uterine EPO (V. max)” value in the data set on ovariectomized rats [2] (1 mg/kg) is recorded as 150.6. Inhibition in data set [3] was half-maximal at 0.08 nM (IC50).

As to `Oc1ccc(-c2sc3cc(O)ccc3c2Sc2ccc(OCCN3CCCCC3)cc2)cc1` [Example 53, [6-Hydroxy-3-[4-[2-(1-piperidinyl)ethoxy]-thiophenoxy]-2-(4-hydroxyphenyl)]benzo[b]thiophene], in the data set with ovariectomized rats [1], the inhibition in vivo at 0.1 mg/kg worked out at 62.7%, the inhibition in vivo at 1 mg/kg is 57.5% and the inhibition in vivo at 10 mg/kg turned out to be 58.7%. Moreover, the “Uterine EPO (V. max)” value with ovariectomized rats [2] (0.1 mg/kg) stood at 0.9. Further, the “Uterine EPO (V. max)” value in the data set on ovariectomized rats [2] (1 mg/kg) was determined as 1.3. The “Uterine EPO (V. max)” value with ovariectomized rats [2] (10 mg/kg) turned out to be 4.8. In addition, in data set [3], the IC50 amounted to 0.28 nM.
